Assay results published in patent US20120065228A1, “COMPOSITIONS AND METHODS FOR TREATING, CONTROLLING, REDUCING, OR AMELIORATING OCULAR INFLAMMATORY WITH LOWER RISK OF INCREASED INTRAOCULAR PRESSURE” (priority 2007, published 2012).
Values joined by “and” are separate entries in the source; they are usually repeats but may differ in a detail not shown here. Equal entries are not always repeated.

Tests used:
Type in all cases: in vivo
[1] = tested on: Myeloperoxidase (MPO); assay: Myeloperoxidase (MPO) activity in iris-ciliary body, rabbit paracentesis model
Experimental: (§1) Each rabbit was placed in a restraint device and tagged with the alphanumeric code. The formulations were instilled (50 μl) into the conjunctival sac of both eyes 180, 120, 90 and 30 min before the first paracentesis; then 15, 30, 90 min after the first paracentesis. To perform the first paracentesis the animals were anaesthetized by intravenous injection of 5 mg/kg Zoletil® (Virbac; 2.5 mg/kg tiletamine HCl and 2.5 mg/kg zolazepam HCl) and one drop of local anesthetic (Novesina®, Novartis) was administered to the eye. Anterior chamber paracentesis was performed with a 26 G needle attached to a tuberculin syringe; the needle was introduced into the anterior chamber through the cornea, taking care not to damage the tissues. Two hours after the ® first paracentesis, the animals were sacrificed with 0.4 ml Tanax® (Intervet International B.V.) and the second paracentesis was performed. About 100 μl of aqueous humor were removed at the second paracentesis. Aqueous humor was immediately split in four aliquots and stored at −80° C. until analysis. Then both eyes were enucleated and the iris-ciliary body was carefully excised, placed in polypropylene tubes, and stored at −80° C. until analysis.
The activity of MPO was measured as previously described by Williams et al. The iris-ciliary bodies were carefully dried, weighed and immersed in 1 ml of hexa-decyl-trimethyl-ammonium bromide solution. Then, the samples were sonicated for 10 sec on ice by a ultrasound homogenizer (HD 2070, Bandelin electronic), freeze-thawed three times, sonicated for 10 sec and centrifuged at 14,000 g for 10 min to remove cellular debris. An aliquot of the supernatant (40-200 μl) was diluted to 3 ml with the o-dianisidine 2HCl/H2O2 solution. The change in absorbance at 460 nm was continuously monitored for 5 min by a spectrophotometer (UV/Vis Spectrometer Lambda EZ 201; Perkin Elmer). The slope of the line (Δ/min) was determined for each sample and used to calculate the number of units of MPO in the tissue as follows:
were ε=11.3 mM^−1. Values were expressed as units of MPO/g of tissue.
(§2) Pupillary diameter, PGE2, protein, PMN, and MPO were expressed as mean±SEM. Statistical analysis was performed using one way ANOVA followed by a Newman-Keuls post hoc test. Clinical score was expressed as % of eyes and the statistical analysis was performed using Kruskal-Wallis followed by a Dunn post hoc test. P<0.05 was considered statistically significant in both cases. Prism 4 software (GraphPad Software, Inc.) was used for the analysis and graphs.

[2] = tested on: New Zealand White rabbits
Experimental: On Days 1-31, animals received daily topical doses of the appropriate test article into the right eye. Animals were dosed four times per day, with doses administered 2 hours apart. Doses were administered using a calibrated 50-μL pipette. The eyelids were held close for 10 seconds immediately following dosing. The time of each dose administration was recorded.
Animals determined to be moribund were euthanized with an intravenous injection of commercial euthanasia solution.

[3] = tested on: rabbit eye; assay: Pupillary diameter measurement, rabbit paracentesis model; conditions: 0.1% topical formulation, individual eyes, listed as Dex
Experimental: as §1
The pupillary diameter of both eyes was measured with a Castroviejo caliper 180 min and 5 min before the first paracentesis and 5 min before the second paracentesis.
as §2

[4] = tested on: leukocytes (PMN); assay: Leukocytes (PMN) measurement in aqueous humor, rabbit paracentesis model; conditions: 0.1% topical formulation, second paracentesis
Experimental: as §1
For the determination of the number of leukocytes we used a haemocytometer (Improved Neubauer Chamber; Bright-line. Hausser Scientific) and a Polyvar 2 microscope (Reichert-Jung).
as §2

[5] = tested on: rabbit eye; assay: Clinical evaluation by slit lamp (clinical score), rabbit paracentesis model; parameters: key to Clinical Score −180 min / Clinical Score −5 min / Clinical Score +115 min: 0: normal; 1: discrete dilatation of iris and conjunctival vessels; 2: moderate dilatation of iris and conjunctival vessels; 3: intense iridal hyperemia with flare in the anterior chamber; 4: intense iridal hyperemia with flare in the anterior chamber and presence of fibrinous exudates; conditions: 0.1% topical formulation
[6] = tested on: protein concentration in the aqueous humor; assay: Protein measurement in aqueous humor, rabbit paracentesis model; conditions: 0.1% topical formulation, second paracentesis
Experimental: as §1
For protein concentration determination in the aqueous humor we used the Protein Quantification Kit (Fluka; Cat. No. 77371; Lot. No. 1303129). Five microliters of aqueous humor were diluted to 100 μl with water. Twenty microliters of samples and of standards were load into a 96-well plate and recorded in a plate layout. Samples were treated following the assay procedure described in the kit. A microplate reader (GDV, Italy; model DV 990 B/V6) set at 670 nm was used for making the calibration and analyzing the samples.
as §2

C[C@@H]1C[C@H]2[C@@H]3CCC4=CC(=O)C=C[C@]4(C)[C@@]3(F)[C@@H](O)C[C@]2(C)[C@@]1(O)C(=O)CO [dexamethasone, reference compound]
MPO Unit/g ([1]; 0.1% Dex, iris-ciliary body samples collected after the second paracentesis, individual eyes (DX/SX), listed as Dex): 0.71 Unit/g and 0.60 Unit/g and 1.32 Unit/g and 0.48 Unit/g (2×) and 0.39 Unit/g and 0.45 Unit/g and 0.51 Unit/g
MPO activity in iris-ciliary body, Mean ([1]; 0.1% topical formulation, after the second paracentesis): 0.618 MPO Unit/g
Rabbits that died or were euthanized between Days 11 and 33 ([2]; 0.05 mg/dose (0.1% dexamethasone suspension; 1 mg/g BOL-303242-X suspension), right eye four times daily, Days 1-31): Six of ten
Mortality (animals found dead or euthanized prior to study completion/number of animals in group) ([2]; 0.1% Dexamethasone (Maxidex), 0.05 mg/dose, 50 μL topical right eye 4 x daily, to Day 33): 6/10^(3)
Mortality rate ([2]; right eye four times daily up to 31 days, dexamethasone 0.05 mg/dose, BOL-303242-X per dose level (0.05, 0.25, 0.5 mg/dose)): 6 deaths per 10 rabbits
Pupillary diameter T2: −5 min ([3]; 5 min before the first paracentesis): 5.5 mm and 6.5 mm (3×) and 6.0 mm (2×) and 7.0 mm and 7.5 mm
Pupillary diameter T3: +115 min ([3]; 5 min before the second paracentesis): 5.5 mm (3×) and 6.0 mm (2×) and 4.5 mm and 5.0 mm and 6.5 mm
Pupillary diameter Δ(T3 − T1) ([3]; +115 min minus −180 min): −0.5 mm (3×) and −1.5 mm (2×) and 0.5 mm and 0.0 mm and −2.0 mm
Pupillary diameter T1: −180 min ([3]; basal): 6.0 mm and 7.0 mm (2×) and 5.5 mm (2×) and 6.5 mm (3×)
PMN in aqueous humor, Mean [4]: 30.000 number/μl
PMN in aqueous humor ([4]; individual eyes, listed as Dex): 20 number/μl (3×) and 50 number/μl and 40 number/μl and 30 number/μl
Clinical Score −5 min ([5]; 5 min before the first paracentesis, individual eyes, listed as Dex): 0 (6×) and 1 (2×)
Clinical Score +115 min ([5]; 5 min before the second paracentesis, individual eyes, listed as Dex): 1 (6×) and 3 (2×)
Clinical score as percentage of eyes, Score (%) 1 ([5]; +115 min, 8 eyes): 75%
Clinical score as percentage of eyes, Score (%) 3 ([5]; +115 min, 8 eyes): 25%
Clinical Score −180 min ([5]; basal, individual eyes): 0
Clinical score as percentage of eyes, Score (%) 0 ([5]; −5 min, 8 eyes): 75%
Clinical score as percentage of eyes, Score (%) 1 ([5]; −5 min, 8 eyes): 25%
Clinical score as percentage of eyes, Score (%) 0 ([5]; −180 min (basal), 8 eyes): 100%
Protein in aqueous humor, Mean [6]: 33.457 mg/mL
Protein in aqueous humor ([6]; individual eyes, listed as Dex): 31.31 mg/mL and 31.81 mg/mL and 35.95 mg/mL and 37.15 mg/mL and 32.12 mg/mL and 32.40 mg/mL
